# Legend:
# Experiment in all cases: relative viability (nuclei count vs DMSO), 5 days (fraction); higher = more cells survive
# [1] = test system: 201T
# Method in brief: (§1)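 A single step with final 0.05% Triton X-100, 1% formaldehyde and 1 ug/ml Hoechst fixed the cells and stained nuclei 5 days after treatment. Lung cancer cell lines in 1536-well plates had been treated by pin tool the day after seeding with one drug alone or a fixed anchor-drug dose plus five library-drug doses (not always all listed) in √10 steps, and nuclei were counted on 4× images. Relative viability is the ratio of nuclei in treated wells to nuclei in vehicle wells, taken as the median of duplicate plates.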
# [2] = test system: BEN
# Method in brief: as §1
# [3] = test system: EPLC-272H
# Method in brief: as §1
# [4] = test system: HCC-15
# Method in brief: as §1
# [5] = test system: HCC-78
# Method in brief: as §1
# [6] = test system: LCLC-97TM1
# Method in brief: as §1
# [7] = test system: LU99A
# Method in brief: as §1
# [8] = test system: NCI-H1355
# Method in brief: as §1
# [9] = test system: NCI-H1395
# Method in brief: as §1
# [10] = test system: NCI-H2009
# Method in brief: as §1
# [11] = test system: NCI-H2085
# Method in brief: as §1
# [12] = test system: NCI-H2126
# Method in brief: as §1
# [13] = test system: NCI-H2228
# Method in brief: as §1
# [14] = test system: NCI-H2342
# Method in brief: as §1
# [15] = test system: NCI-H23
# Method in brief: as §1
# [16] = test system: NCI-H2405
# Method in brief: as §1
# [17] = test system: NCI-H322M
# Method in brief: as §1
# [18] = test system: NCI-H460
# Method in brief: as §1
# [19] = test system: NCI-H647
# Method in brief: as §1
# [20] = test system: NCI-H650
# Method in brief: as §1
# [21] = test system: NCI-H661
# Method in brief: as §1
# [22] = test system: NCI-H838
# Method in brief: as §1
# [23] = test system: PC-14
# Method in brief: as §1
structure (smiles),measurement,setting,value
Cc1cn(-c2cc(NC(=O)c3ccc(C)c(Nc4nccc(-c5cccnc5)n4)c3)cc(C(F)(F)F)c2)cn1 [Nilotinib] + CC(=O)Nc1cccc(-n2c(=O)n(C3CC3)c(=O)c3c(Nc4ccc(I)cc4F)n(C)c(=O)c(C)c32)c1 [Trametinib] (partner 0.02 µM),relative viability,[1]; first compound 0.001 µM,0.709
same,relative viability,[1]; first compound 0.003162 µM,0.749
same,relative viability,[1]; first compound 0.01 µM,0.739
same,relative viability,[1]; first compound 0.03162 µM,0.717
same,relative viability,[1]; first compound 0.1 µM,0.728
same,relative viability,[2]; first compound 0.001 µM,0.98
same,relative viability,[2]; first compound 0.003162 µM,0.931
same,relative viability,[2]; first compound 0.01 µM,1.01
same,relative viability,[2]; first compound 0.03162 µM,0.954
same,relative viability,[2]; first compound 0.1 µM,1.15
same,relative viability,[3]; first compound 0.001 µM,0.289
same,relative viability,[3]; first compound 0.003162 µM,0.233
same,relative viability,[3]; first compound 0.01 µM,0.34
same,relative viability,[3]; first compound 0.03162 µM,0.273
same,relative viability,[3]; first compound 0.1 µM,0.225
same,relative viability,[4]; first compound 0.001 µM,0.375
same,relative viability,[4]; first compound 0.003162 µM,0.357
same,relative viability,[4]; first compound 0.01 µM,0.369
same,relative viability,[4]; first compound 0.03162 µM,0.284
same,relative viability,[4]; first compound 0.1 µM,0.233
same,relative viability,[5]; first compound 0.001 µM,0.754
same,relative viability,[5]; first compound 0.003162 µM,0.597
same,relative viability,[5]; first compound 0.01 µM,0.956
same,relative viability,[5]; first compound 0.03162 µM,0.649
same,relative viability,[5]; first compound 0.1 µM,0.863
same,relative viability,[6]; first compound 0.001 µM,0.164
same,relative viability,[6]; first compound 0.003162 µM,0.18
same,relative viability,[6]; first compound 0.01 µM,0.152
same,relative viability,[6]; first compound 0.03162 µM,0.114
same,relative viability,[6]; first compound 0.1 µM,0.227
same,relative viability,[7]; first compound 0.001 µM,0.31
same,relative viability,[7]; first compound 0.003162 µM,0.328
same,relative viability,[7]; first compound 0.01 µM,0.332
same,relative viability,[7]; first compound 0.03162 µM,0.296
same,relative viability,[7]; first compound 0.1 µM,0.242
same,relative viability,[8]; first compound 0.001 µM,0.378
same,relative viability,[8]; first compound 0.003162 µM,0.469
same,relative viability,[8]; first compound 0.01 µM,0.44
same,relative viability,[8]; first compound 0.03162 µM,0.356
same,relative viability,[8]; first compound 0.1 µM,0.307
same,relative viability,[9]; first compound 0.001 µM,0.988
same,relative viability,[9]; first compound 0.01 µM,1.19
same,relative viability,[9]; first compound 0.03162 µM,0.96
same,relative viability,[9]; first compound 0.1 µM,0.9
same,relative viability,[10]; first compound 0.001 µM,0.232
same,relative viability,[10]; first compound 0.003162 µM,0.203
same,relative viability,[10]; first compound 0.01 µM,0.278
same,relative viability,[10]; first compound 0.03162 µM,0.2
same,relative viability,[10]; first compound 0.1 µM,0.197
same,relative viability,[11]; first compound 0.001 µM,0.483
same,relative viability,[11]; first compound 0.003162 µM,0.584
same,relative viability,[11]; first compound 0.01 µM,0.469
same,relative viability,[11]; first compound 0.03162 µM,0.456
same,relative viability,[11]; first compound 0.1 µM,0.54
same,relative viability,[12]; first compound 0.001 µM,0.521
same,relative viability,[12]; first compound 0.003162 µM,0.647
same,relative viability,[12]; first compound 0.01 µM,0.647
same,relative viability,[12]; first compound 0.03162 µM,0.551
same,relative viability,[12]; first compound 0.1 µM,0.554
same,relative viability,[13]; first compound 0.001 µM,0.437
same,relative viability,[13]; first compound 0.003162 µM,0.552
same,relative viability,[13]; first compound 0.01 µM,0.576
same,relative viability,[13]; first compound 0.03162 µM,0.255
same,relative viability,[13]; first compound 0.1 µM,0.295
same,relative viability,[14]; first compound 0.001 µM,0.786
same,relative viability,[14]; first compound 0.003162 µM,0.76
same,relative viability,[14]; first compound 0.01 µM,0.798
same,relative viability,[14]; first compound 0.03162 µM,0.711
same,relative viability,[14]; first compound 0.1 µM,0.842
same,relative viability,[15]; first compound 0.001 µM,0.319
same,relative viability,[15]; first compound 0.01 µM,0.292
same,relative viability,[15]; first compound 0.03162 µM,0.202
same,relative viability,[15]; first compound 0.1 µM,0.197
same,relative viability,[16]; first compound 0.001 µM,0.504
same,relative viability,[16]; first compound 0.003162 µM,0.406
same,relative viability,[16]; first compound 0.01 µM,0.457
same,relative viability,[16]; first compound 0.03162 µM,0.325
same,relative viability,[16]; first compound 0.1 µM,0.327
same,relative viability,[17]; first compound 0.001 µM,0.538
same,relative viability,[17]; first compound 0.003162 µM,0.524
same,relative viability,[17]; first compound 0.01 µM,0.476
same,relative viability,[17]; first compound 0.03162 µM,0.613
same,relative viability,[17]; first compound 0.1 µM,0.465
same,relative viability,[18]; first compound 0.003162 µM,0.127
same,relative viability,[18]; first compound 0.01 µM,0.0752
same,relative viability,[18]; first compound 0.03162 µM,0.108
same,relative viability,[18]; first compound 0.1 µM,0.0424
same,relative viability,[19]; first compound 0.001 µM,0.363
same,relative viability,[19]; first compound 0.003162 µM,0.614
same,relative viability,[19]; first compound 0.01 µM,0.352
same,relative viability,[19]; first compound 0.03162 µM,0.18
same,relative viability,[19]; first compound 0.1 µM,0.254
same,relative viability,[20]; first compound 0.001 µM,0.952
same,relative viability,[20]; first compound 0.003162 µM,0.915
same,relative viability,[20]; first compound 0.01 µM,1.03
same,relative viability,[20]; first compound 0.03162 µM,0.974
same,relative viability,[20]; first compound 0.1 µM,0.9
same,relative viability,[21]; first compound 0.001 µM,0.49
same,relative viability,[21]; first compound 0.003162 µM,0.593
same,relative viability,[21]; first compound 0.01 µM,0.606
same,relative viability,[21]; first compound 0.03162 µM,0.407
same,relative viability,[21]; first compound 0.1 µM,0.367
same,relative viability,[22]; first compound 0.001 µM,0.462
same,relative viability,[22]; first compound 0.003162 µM,0.617
same,relative viability,[22]; first compound 0.01 µM,0.567
same,relative viability,[22]; first compound 0.03162 µM,0.339
same,relative viability,[22]; first compound 0.1 µM,0.494
same,relative viability,[23]; first compound 0.001 µM,0.671
same,relative viability,[23]; first compound 0.003162 µM,1.14
same,relative viability,[23]; first compound 0.01 µM,0.708
same,relative viability,[23]; first compound 0.03162 µM,0.448
same,relative viability,[23]; first compound 0.1 µM,0.526

# From the supplement of paper PMC10307832
